Measured values published in patent publication US9725448B2, “Neprilysin inhibitors” (THERAVANCE BIOPHARMA R&D IP, LLC, priority 2011, dated 2017).

Target: T1, human NEP (Homo sapiens, UniProt P08473)
T1 construct: purchased R&D Systems, Minneapolis, Minn; 1182-ZN
Test: In vitro enzyme inhibition assay at human NEP (fluorogenic peptide substrate)
Assay type: biochemical
Conditions: pKi values at human NEP (recombinant), given as ranges
Protocol: The inhibitory activities of compounds at human and rat neprilysin (EC 3.4.24.11; NEP) and human angiotensin converting enzyme (ACE) were determined using in vitro assays as described below.
Recombinant human NEP and recombinant human ACE were obtained commercially (R&D Systems, Minneapolis, Minn., catalog numbers 1182-ZN and 929-ZN, respectively). The fluorogenic peptide substrate Mca-D-Arg-Arg-Leu-Dap-(Dnp)-OH (Medeiros et al. (1997) Braz. J. Med. Biol. Res. 30:1157-62; Anaspec, San Jose, Calif.) and Abz-Phe-Arg-Lys(Dnp)-Pro-OH (Araujo et al. (2000) Biochemistry 39:8519-8525; Bachem, Torrance, Calif.) were used in the NEP and ACE assays respectively.
The assays were performed in 384-well white opaque plates at 37° C. using the fluorogenic peptide substrates at a concentration of 10 μM in Assay Buffer (NEP: 50 mM HEPES, pH 7.5, 100 mM NaCl, 0.01% polyethylene glycol sorbitan monolaurate (Tween-20), […]; ACE: 50 mM HEPES, pH 7.5, 100 mM NaCl, 0.01% Tween-20, 1 μM ZnSO4).
Test compounds were assayed over the range of concentrations from 10 μM to 20 pM. Test compounds were added to the enzymes and incubated for 30 minute at 37° C. prior to initiating the reaction by the addition of substrate. Reactions were terminated after 20 minutes of incubation at 37° C. by the addition of glacial acetic acid to a final concentration of 3.6% (v/v).
Plates were read on a fluorometer with excitation and emission wavelengths set to 320 nm and 405 nm, respectively. Inhibition constants were obtained by nonlinear regression of the data using the equation (GraphPad Software, Inc., San Diego, Calif.): ν=ν0/[1+(I/K′)] where ν is the reaction rate, ν0 is the uninhibited reaction rate, I is the inhibitor concentration and K′ is the apparent inhibition constant.
Compounds of the invention were tested in this assay and found to have pKi values at human NEP as follows.

T1 sequence (P08473 52-750 limits assumed): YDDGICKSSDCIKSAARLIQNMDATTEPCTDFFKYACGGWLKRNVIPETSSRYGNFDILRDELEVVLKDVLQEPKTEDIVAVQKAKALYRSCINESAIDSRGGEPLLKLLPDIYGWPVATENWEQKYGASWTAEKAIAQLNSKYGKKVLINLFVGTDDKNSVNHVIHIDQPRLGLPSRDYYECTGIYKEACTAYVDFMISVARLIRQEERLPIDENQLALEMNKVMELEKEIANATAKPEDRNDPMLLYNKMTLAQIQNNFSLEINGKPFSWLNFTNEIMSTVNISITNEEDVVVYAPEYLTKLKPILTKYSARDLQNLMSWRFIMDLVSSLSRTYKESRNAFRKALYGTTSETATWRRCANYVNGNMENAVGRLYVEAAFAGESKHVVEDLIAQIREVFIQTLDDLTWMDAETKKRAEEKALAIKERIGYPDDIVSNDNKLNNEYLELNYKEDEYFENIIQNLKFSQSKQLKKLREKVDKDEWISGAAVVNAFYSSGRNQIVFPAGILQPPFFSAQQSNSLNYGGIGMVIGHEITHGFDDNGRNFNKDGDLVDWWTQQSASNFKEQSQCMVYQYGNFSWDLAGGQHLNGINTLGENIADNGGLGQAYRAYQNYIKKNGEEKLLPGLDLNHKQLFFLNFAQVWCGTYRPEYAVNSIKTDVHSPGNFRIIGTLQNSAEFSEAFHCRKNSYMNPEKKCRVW

Compound	Ki
CC(C)(C[C@@H](Cc1ccc(-c2ccccc2)cc1)NC(=O)c1cc(C(=O)N2CCC[C@H]2C(=O)O)n[nH]1)C(=O)O [Example 9-11, (S)-1-[5-((R)-1-Biphenyl-4-ylmethyl-3-carboxy-3-methyl-butylcarbamoyl)-1H-pyrazole-3-carbonyl]-pyrrolidine-2-carboxylic acid]	1.26 to 10 nM
CNC(=O)c1cc(C(=O)N[C@H](Cc2ccc(-c3ccccc3)cc2)CC(C)(C)C(=O)O)[nH]n1 [Example 9-12, (R)-5-Biphenyl-4-yl-2,2-dimethyl-4-[(5-methylcarbamoyl-2H-pyrazole-3-carbonyl)-amino]-pentanoic acid]	12.6 to 100 nM
CN(C)C(=O)c1cc(C(=O)N[C@H](Cc2ccc(-c3ccccc3)cc2)CC(C)(C)C(=O)O)[nH]n1 [Example 9-13, (R)-5-Biphenyl-4-yl-4-[(5-dimethylcarbamoyl-2H-pyrazole-3-carbonyl)-amino]-2,2-dimethyl-pentanoic acid]	12.6 to 100 nM
CC(C)CN(C)C(=O)c1cc(C(=O)N[C@H](Cc2ccc(-c3ccccc3)cc2)CC(C)(C)C(=O)O)[nH]n1 [Example 9-14, (R)-5-Biphenyl-4-yl-4-{[5-(isobutyl-methyl-carbamoyl)-2H-pyrazole-3-carbonyl]-amino}-2,2-dimethyl-pentanoic acid]	12.6 to 100 nM
COCCN(C)C(=O)c1cc(C(=O)N[C@H](Cc2ccc(-c3ccccc3)cc2)CC(C)(C)C(=O)O)[nH]n1 [Example 9-15, (R)-5-Biphenyl-4-yl-4-({5-[(2-methoxy-ethyl)-methyl-carbamoyl]-2H-pyrazole-3-carbonyl}-amino)-2,2-dimethyl-pentanoic acid]	1.26 to 10 nM
CC(C)(C[C@@H](Cc1ccc(-c2ccccc2)cc1)NC(=O)c1cc(C(=O)NCCc2c[nH]cn2)n[nH]1)C(=O)O [Example 9-17, (R)-5-Biphenyl-4-yl-4-({5-[2-(1H-imidazol-4-yl)-ethylcarbamoyl]-2H-pyrazole-3-carbonyl}-amino)-2,2-dimethyl-pentanoic acid]	12.6 to 100 nM
CC(=O)c1cc(C(=O)N[C@H](Cc2ccc(-c3ccccc3)cc2)CC(C)(C)C(=O)O)[nH]n1 [Example 9-18, (R)-4-[(5-Acetyl-2H-pyrazole-3-carbonyl)-amino]-5-biphenyl-4-yl-2,2-dimethyl-pentanoic acid]	12.6 to 100 nM
O=C(N[C@H](Cc1ccc(-c2ccccc2)cc1)CC1(C(=O)O)CC1)c1cc(C(=O)O)[nH]n1 [Example 10A, 5-[(R)-2-Biphenyl-4-yl-1-(1-carboxy-cyclopropylmethyl)-ethylcarbamoyl]-2H-pyrazole-3-carboxylic acid]	≤ 1 nM
O=C(N[C@H](Cc1ccc(-c2ccccc2)cc1)CC1(C(=O)O)CC1)c1cnn[nH]1 [Example 11-1, 1-{(R)-3-Biphenyl-4-yl-2-[(3H-[1,2,3]triazole-4-carbonyl)-amino]-propyl}-cyclopropanecarboxylic acid]	12.6 to 100 nM
O=C(N[C@H](Cc1ccc(-c2ccccc2)cc1)CC1(C(=O)O)CC1)c1nc(O)n[nH]1 [Example 11-3, 1-{(R)-3-Biphenyl-4-yl-2-[(5-hydroxy-2H-[1,2,4]triazole-3-carbonyl)-amino]-propyl}-cyclopropanecarboxylic acid]	1.26 to 10 nM
O=C(N[C@H](Cc1ccc(-c2ccccc2)cc1)CC1(C(=O)O)CC1)c1cc(O)no1 [Example 11-5, 1-{(R)-3-Biphenyl-4-yl-2-[(3-hydroxy-isoxazole-5-carbonyl)-amino]-propyl}-cyclopropanecarboxylic acid]	≤ 1 nM
O=C(N[C@H](Cc1ccc(-c2ccccc2)cc1)CC1(C(=O)O)CC1)c1cnc(O)nc1 [Example 11-8, 1-{(R)-3-Biphenyl-4-yl-2-[(2-hydroxy-pyrimidine-5-carbonyl)-amino]-propyl}-cyclopropanecarboxylic acid]	1.26 to 10 nM
O=C(N[C@H](Cc1ccc(-c2ccccc2)cc1)CC1(C(=O)O)CC1)c1cc(O)n[nH]1 [Example 11-10, 1-{(R)-3-Biphenyl-4-yl-2-[(5-hydroxy-2H-pyrazole-3-carbonyl)-amino]-propyl}-cyclopropanecarboxylic acid]	12.6 to 100 nM
